According to US20230117155A1, “FRACTION EXTRACT OF MELISSA OFFICINALIS LEAVES AND NOVEL PHARMACEUTICAL COMPOSITION INCLUDING SAME” (priority 2020, published 2023):
Entries after “also recorded” stand apart in the source; their conditions may differ.

Test system: HUVECs (human umbilical vein endothelial cells)
Experiment: HUVEC tube formation, angiogenesis inhibitory activity assay
Format: cell-based
Details: single ingredient, final concentration 50 μg/ml; FIG. 9
Protocol: A 48-well plate was coated with 200 μl of 10% matrigel, and incubated at 4° C. After 4 hours the temperature was raised to 37° C., and 1 hour later, the test substances listed in Tables 2 and 3 below were added to a final concentration of 50 μg/ml, and then 5×10^4 HUVECs (human umbilical vein endothelial cells) were added to each well, and pictures were taken the next day.

Row | SMILES | angiogenesis inhibitory activity in HUVEC tube formation assay
1 | O=C(O)/C=C/c1ccc(O)c(O)c1 [caffeic acid] | angiogenesis inhibitory activities
2 | CCOC(=O)Cc1ccc(O)c(O)c1 [EDPA, Ethyl 2-(3,4-dihydroxyphenyl) acetate] | angiogenesis inhibitory activities; also recorded: highest angiogenesis inhibitory activity
3 | COC(=O)[C@@H](Cc1ccc(O)c(O)c1)OC(=O)/C=C/c1ccc(O)c(O)c1 [RME, Rosmarinic acid methyl ester] | angiogenesis inhibitory activities
4 | O=C(/C=C/c1ccc(O)c(O)c1)O[C@H](Cc1ccc(O)c(O)c1)C(=O)O [Rosmarinic acid] | angiogenesis inhibitory activities
